According to patent US11548900B2, “Oxazino-quinazoline and oxazino-quinoline type compound, preparation method and uses thereof” (BEIJING SCITECH-MQ PHARMACEUTICALS LIMITED, priority 2018, dated 2023):

How the values were obtained:
BT474 cells = experiment: Inhibition of cell proliferation, BT474 (CCK-8, 72 h); type: cell-based; settings: Homo sapiens, BT-474, 72 h incubation
Experimental: The assay for the inhibition of cell proliferation by small molecular compounds was carried out using the method as follows:
1. 600 μL pancreatin was added to a T75 cell culture flask, which was digested in a 37° C. incubator for about 1 min before 5 mL of DMEM complete culture solution was added, blew evenly, transferred to a 15 mL centrifuge tube, and centrifuged at 1000 rpm for 4 min;
2. The supernatant was removed and 5 mL DMEM complete culture solution was added, blew evenly, and 10 μL cell suspension was taken and mixed with 10 μL 0.4% Trypan Blue, and counted using a cell counter;
3. BT474 and HCC827 cell lines were seeded in 96-well plates at a cell density of 10,000 and 3000 cells/well/80 μL, respectively, and cultured overnight. Only sterile water was added to the 36 wells on the periphery of the 96-well plate without adding cells, and only the 60 wells in the center of the 96-well plate were used for cell assays and controls;
4. Dilution of compounds: the compounds were diluted with a 3-fold dilution to make 10 concentrations in total with an initial concentration of 10 mM;
5. 20 μL of different compounds with different concentrations were added to each well, and 20 μL of complete culture solution was added to the remaining wells. The final concentration of DMSO in each well is 0.25%;
6. After 72 h of incubation, 10 μL CCK-8 reagent was added to each well, and incubated at 37° C. for 1-2 h; and the OD value was read at 450 nm;
7. Cell survival rate (%)=[(As−Ab)/(Ac−Ab)]*100%
As: Assay well (medium containing cell, CCK-8, compound)
Ac: Control well (medium containing cell, CCK-8)
Ab: Blank well (CCK-8, medium without cell and compound)
8. The value was imported into Graphpad Prism5 software for the calculation of IC50s (compound concentration at which 50% maximum survival rate is observed).

HER2 kinase = HER2 kinase (Homo sapiens (Human), UniProt P04626); experiment: Inhibition of HER2 kinase activity (ULight-labeled PolyGT substrate); type: biochemical; settings: HER2 kinase 10 nM, ATP 10 μM, 2 hours
Sequence of HER2 kinase (P04626 23-1255): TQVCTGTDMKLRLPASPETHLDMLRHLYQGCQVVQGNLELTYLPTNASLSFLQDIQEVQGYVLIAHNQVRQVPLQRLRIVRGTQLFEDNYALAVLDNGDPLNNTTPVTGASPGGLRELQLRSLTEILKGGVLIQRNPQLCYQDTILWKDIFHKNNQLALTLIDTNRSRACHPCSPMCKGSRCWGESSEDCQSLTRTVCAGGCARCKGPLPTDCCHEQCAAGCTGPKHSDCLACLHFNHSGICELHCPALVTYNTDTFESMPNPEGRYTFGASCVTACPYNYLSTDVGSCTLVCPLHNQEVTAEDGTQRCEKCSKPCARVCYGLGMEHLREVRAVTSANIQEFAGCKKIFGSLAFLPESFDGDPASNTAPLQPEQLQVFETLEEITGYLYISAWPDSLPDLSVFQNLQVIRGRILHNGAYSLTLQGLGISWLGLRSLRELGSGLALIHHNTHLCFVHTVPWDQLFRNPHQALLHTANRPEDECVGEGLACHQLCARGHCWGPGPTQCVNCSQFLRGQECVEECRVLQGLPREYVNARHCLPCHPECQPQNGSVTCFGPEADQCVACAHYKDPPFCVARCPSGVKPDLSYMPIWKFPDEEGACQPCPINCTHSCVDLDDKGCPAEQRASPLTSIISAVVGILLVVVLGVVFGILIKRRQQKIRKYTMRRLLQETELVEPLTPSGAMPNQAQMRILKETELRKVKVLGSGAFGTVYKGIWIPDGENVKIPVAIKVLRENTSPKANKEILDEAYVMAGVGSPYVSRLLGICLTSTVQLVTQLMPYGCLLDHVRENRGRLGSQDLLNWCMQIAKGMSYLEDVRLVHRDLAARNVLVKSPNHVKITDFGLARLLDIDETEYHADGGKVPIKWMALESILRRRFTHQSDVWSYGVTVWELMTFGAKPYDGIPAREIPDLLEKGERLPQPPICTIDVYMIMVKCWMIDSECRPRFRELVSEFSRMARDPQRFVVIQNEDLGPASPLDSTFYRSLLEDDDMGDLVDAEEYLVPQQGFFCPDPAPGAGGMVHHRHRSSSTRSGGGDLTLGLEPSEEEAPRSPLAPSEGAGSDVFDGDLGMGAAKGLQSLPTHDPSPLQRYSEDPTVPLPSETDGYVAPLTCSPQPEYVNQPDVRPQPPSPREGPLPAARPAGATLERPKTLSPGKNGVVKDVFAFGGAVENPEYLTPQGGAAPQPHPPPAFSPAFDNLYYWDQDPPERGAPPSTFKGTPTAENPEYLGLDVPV
Experimental: (§1) The assay for the inhibition of EGFR and HER2 kinase activity by small molecular compounds was carried out using the method as follows:
(§2) 1) Dilution of the compounds
(§3) In a 96-well plate a, the compounds were diluted with DMSO using a 3-fold gradient dilution to form 11 concentrations, the 12th concentration is pure DMSO (as a positive control); and in a new 96-well plate b the above solutions were diluted 25 times with ultrapure water (DMSO concentration is 4%).
(§4) 2) Transferring the compounds to 384-well plate
(§5) The compound solutions diluted with ultrapure water in the 96-well plate b above was transferred to the corresponding wells of a 384-well plate in duplicate.
(§6) 3) Addition of 4×kinase solution: 2.5 μl of the above 4× kinase solution was taken using multichannel pipette and added to the corresponding reaction wells of the 384-well plate, mixed well and pre-reacted at room temperature for 5 minutes.
(§7) 4) Addition of 2×substrate/ATP mixed solution: 5 μl of the above 2×substrate/ATP mixed solution was taken using multichannel pipette and added to the corresponding reaction wells of the 384-well plate.
(§8) 5) Negative control: negative control wells were set in the 384-well plate, and 2.5 μl 4×substrate, 2.5 μl 4×enzyme solution, 2.5 μl 1×Kinase Assay Buffer and 2.5 μl ultrapure water containing 4% DMSO were added to each well.
(§9) 6) Mixed by centrifugation and kept at room temperature for 2 hours in the dark.
(§10) 7) Termination of the enzymatic reaction:
(§11) 5 μl of the above 4× stop solution was pipetted to the corresponding wells of the 384-well plate, centrifuged and mixed, and reacted at room temperature for 5 minutes.
(§12) 5 μl of the above 4× detection solution was pipetted into the corresponding wells of the 384-well plate, centrifuged and mixed, and reacted at room temperature for 1 hour.
(§13) 9) The 384-well plate was placed into a microplate reader and the signal was detected using the corresponding program.
(§14) 10) IC50 analysis: Well reading value=10000*EU665 value/EU615 value Inhibition rate=(reading value of positive control well−reading value of experimental well)/(reading value of positive control well−reading value of negative control well)*100% Corresponding IC50s can be calculated by entering the drug concentrations and the corresponding inhibition rates into GraphPad Prism 5.
Conditions of experiment for screening HER2 kinase inhibitory molecules:
The final concentration of HER2 kinase in the reaction system is 10 nM, the final concentration of ATP is 10 μM, the final concentration of substrate ULight™-labeled PolyGT is 100 nM, and the enzymatic reaction time is 2 hours.
(§15) The maximum final concentration of the compound in the reaction system is 2.5 μM, 11 concentrations were made with a 3-fold gradient dilution, and the minimal final concentration is 0.042 nM. The final concentration of DMSO is 1%.

EGFR kinase = EGFR kinase (Homo sapiens (Human), UniProt P00533); experiment: Inhibition of EGFR kinase activity (ULight-labeled JAK-1 (Tyr1023) peptide substrate); type: biochemical; settings: EGFR kinase 0.35 nM, ATP 150 μM, 2 hours
Sequence of EGFR kinase (P00533 25-1210): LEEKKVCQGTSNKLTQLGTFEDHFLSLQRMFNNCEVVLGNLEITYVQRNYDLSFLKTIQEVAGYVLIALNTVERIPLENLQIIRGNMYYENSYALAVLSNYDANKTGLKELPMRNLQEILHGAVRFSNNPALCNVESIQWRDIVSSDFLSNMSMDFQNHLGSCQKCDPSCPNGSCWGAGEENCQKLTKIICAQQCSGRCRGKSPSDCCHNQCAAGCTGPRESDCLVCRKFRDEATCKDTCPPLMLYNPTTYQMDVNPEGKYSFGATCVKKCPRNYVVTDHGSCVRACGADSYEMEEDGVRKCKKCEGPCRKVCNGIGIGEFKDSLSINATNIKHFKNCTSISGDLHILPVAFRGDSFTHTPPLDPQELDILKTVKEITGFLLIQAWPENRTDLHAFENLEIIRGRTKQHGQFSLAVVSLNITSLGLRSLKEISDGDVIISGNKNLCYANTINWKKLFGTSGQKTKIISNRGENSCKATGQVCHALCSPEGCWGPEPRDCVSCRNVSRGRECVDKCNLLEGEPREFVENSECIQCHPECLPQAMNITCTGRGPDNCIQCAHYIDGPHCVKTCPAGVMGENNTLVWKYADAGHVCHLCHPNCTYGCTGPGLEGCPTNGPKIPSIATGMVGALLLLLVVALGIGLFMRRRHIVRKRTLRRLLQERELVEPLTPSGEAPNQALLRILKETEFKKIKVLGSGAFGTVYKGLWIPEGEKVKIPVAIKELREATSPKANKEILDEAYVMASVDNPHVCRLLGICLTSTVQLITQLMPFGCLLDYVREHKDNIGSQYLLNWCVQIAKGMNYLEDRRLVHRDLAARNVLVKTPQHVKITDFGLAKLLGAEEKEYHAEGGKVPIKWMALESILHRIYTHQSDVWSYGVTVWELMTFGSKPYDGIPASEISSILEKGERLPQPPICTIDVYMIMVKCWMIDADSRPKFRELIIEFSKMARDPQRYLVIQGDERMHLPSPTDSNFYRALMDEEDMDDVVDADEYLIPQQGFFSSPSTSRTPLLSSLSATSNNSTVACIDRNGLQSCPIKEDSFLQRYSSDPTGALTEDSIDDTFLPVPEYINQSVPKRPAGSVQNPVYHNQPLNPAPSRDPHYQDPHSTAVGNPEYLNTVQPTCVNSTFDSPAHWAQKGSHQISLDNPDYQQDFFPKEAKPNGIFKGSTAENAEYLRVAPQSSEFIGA
Experimental: as §1, §2, §3, §4, §5, §6, §7, §8, §9, §10, §11, §12, §13, §14
Conditions of experiment for screening EGFR kinase inhibitory molecules:
The final concentration of EGFR kinase in the reaction system is 0.35 nM, and the final concentration of ATP is 150 μM, the final concentration of substrate ULight™-labeled JAK-1 (Tyr1023) Peptide is 100 nM, and the enzymatic reaction time is 2 hours.
as §15

| SMILES | IC50 (BT474 cells) | IC50 (HER2 kinase) | IC50 (EGFR kinase) |
| --- | --- | --- | --- |
| O=C(/C=C/CN1CCC(O)CC1)N1CCOc2c1ccc1ncnc(Nc3ccc(OCc4ccccn4)c(Cl)c3)c21 [Example 115, (E)-1-(10-((3-chloro-4-(pyridin-2-ylmethoxy)phenyl)amino)-2,3-dihydro-4H-[1,4]oxazino[2,3-f]quinazolin-4-yl)-4-(4-hydroxypiperidin-1-yl)but-2-en-1-one] | ≤ 50 nM | ≤ 50 nM |  |
| CN(C)C/C=C/C(=O)N1CCOc2c1ccc1ncnc(Nc3ccc(Oc4ccc(Cl)cc4)cc3)c21 [Example 52, (E)-4-(dimethylamino)-1-(10-((4-(4-chlorophenoxy)phenyl)amino)-2,3-dihydro-4H-[1,4]oxazino[2,3-f]quinazolin-4-yl)but-2-en-1-one] |  | ≤ 50 nM | ≤ 50 nM |
| C=CC(=O)N1CCOc2c1ccc1ncnc(Nc3ccc(OCc4nccs4)cc3)c21 [Example 23, 1-(10-((4-(thiazol-2-ylmethoxy)phenyl)amino)-2,3-dihydro-4H-[1,4]oxazino[2,3-f]quinazolin-4-yl)prop-2-en-1-one] |  | ≤ 50 nM |  |
| C[C@@H]1CN(C)CCN1C/C=C/C(=O)N1CCOc2c1ccc1ncnc(Nc3ccc(OCc4ccccn4)c(Cl)c3)c21 [Example 123, (R,E)-1-(10-((3-chloro-4-(pyridin-2-ylmethoxy)phenyl)amino)-2,3-dihydro-4H-[1,4]oxazino[2,3-f]quinazolin-4-yl)-4-(2,4-dimethylpiperazin-1-yl)but-2-en-1-one] | ≤ 50 nM | ≤ 50 nM |  |
| C=CC(=O)N1CCOc2c1ccc1ncnc(Nc3ccc(Oc4ccccc4OCCOC)cc3)c21 [Example 32, 1-(10-((4-(2-(2-methoxyethoxy)phenoxy)phenyl)amino)-2,3-dihydro-4H-[1,4]oxazino[2,3-f]quinazolin-4-yl)prop-2-en-1-one] |  | ≤ 50 nM |  |
| C=CC(=O)N1CCOc2c1ccc1ncnc(Nc3ccc(OCc4ccc(F)cc4)cc3)c21 [Example 18, 1-(10-((4-((4-fluorobenzyl)oxy)phenyl)amino)-2,3-dihydro-4H-[1,4]oxazino[2,3-f]quinazolin-4-yl)prop-2-en-1-one] |  | ≤ 50 nM |  |
| C[C@H]1CN(C)CCN1C/C=C/C(=O)N1CCOc2c1ccc1ncnc(Nc3ccc(OCc4ccccn4)c(Cl)c3)c21 [Example 121, (S,E)-1-(10-((3-chloro-4-(pyridin-2-ylmethoxy)phenyl)amino)-2,3-dihydro-4H-[1,4]oxazino[2,3-f]quinazolin-4-yl)-4-(2,4-dimethylpiperazin-1-yl)but-2-en-1-one] | ≤ 50 nM | ≤ 50 nM |  |
| CN(C/C=C/C(=O)N1CCOc2c1ccc1ncnc(Nc3ccc(OCc4ccccn4)c(Cl)c3)c21)CCCO [Example 120, (E)-1-(10-((3-chloro-4-(pyridin-2-ylmethoxy)phenyl)amino)-2,3-dihydro-4H-[1,4]oxazino[2,3-f]quinazolin-4-yl)-4-((3-hydroxypropyl)(methyl)amino)but-2-en-1-one] | ≤ 50 nM | ≤ 50 nM |  |
| C=CC(=O)N1CCOc2c1ccc1ncnc(Nc3ccc(Oc4ccccn4)cc3)c21 [Example 12, 1-(10-((4-(pyridin-2-yloxy)phenyl)amino)-2,3-dihydro-4H-[1,4]oxazino[2,3-f]quinazolin-4-yl)prop-2-en-1-one] |  | ≤ 50 nM |  |
| C=CC(=O)N1CCOc2c1ccc1ncnc(Nc3ccc(OCc4cccc(F)c4)c(OC)c3)c21 [Example 26, 1-(10-((4-((3-fluorobenzyl)oxy)-3-(methoxy)phenyl)amino)-2,3-dihydro-4H-[1,4]oxazino[2,3-f]quinazolin-4-yl)prop-2-en-1-one] |  | ≤ 50 nM |  |
| O=C(/C=C/CN1CCC(CO)CC1)N1CCOc2c1ccc1ncnc(Nc3ccc(OCc4ccccn4)c(Cl)c3)c21 [Example 117, (E)-1-(10-((3-chloro-4-(pyridin-2-ylmethoxy)phenyl)amino)-2,3-dihydro-4H-[1,4]oxazino[2,3-f]quinazolin-4-yl)-4-(4-(hydroxymethyl)piperidin-1-yl)but-2-en-1-one] | ≤ 50 nM | ≤ 50 nM |  |

Now from value to molecule:

| IC50 (BT474 cells) | IC50 (HER2 kinase) | IC50 (EGFR kinase) | SMILES |
| --- | --- | --- | --- |
| ≤ 50 nM | ≤ 50 nM |  | CN(C/C=C/C(=O)N1CCOc2c1ccc1ncnc(Nc3ccc(OCc4ccccn4)c(Cl)c3)c21)CCO [Example 122, (E)-1-(10-((3-chloro-4-(pyridin-2-ylmethoxy)phenyl)amino)-2,3-dihydro-4H-[1,4]oxazino[2,3-f]quinazolin-4-yl)-4-((2-hydroxyethyl)(methyl)amino)but-2-en-1-one] |
|  | ≤ 50 nM | ≤ 50 nM | C=CC(=O)N1CCOc2c1ccc1ncnc(Oc3ccc(OCc4ccccc4F)cc3)c21 [Example 40, 1-(10-(4-((2-fluorobenzyl)oxy)phenoxy)-2,3-dihydro-4H-[1,4]oxazino[2,3-f]quinazolin-4-yl)prop-2-en-1-one] |
|  | ≤ 50 nM | ≤ 50 nM | CN(C)C/C=C/C(=O)N1CCOc2c1ccc1ncnc(Nc3ccc(Oc4cccc(C(F)(F)F)c4)cc3)c21 [Example 43, (E)-4-(dimethylamino)-1-(10-((4-(3-(trifluoromethyl)phenoxy)phenyl)amino)-2,3-dihydro-4H-[1,4]oxazino[2,3-f]quinazolin-4-yl)but-2-en-1-one] |
|  | ≤ 50 nM | ≤ 50 nM | C=CC(=O)N1CCOc2c1ccc1ncnc(Nc3ccc(OCc4ccccn4)c(Cl)c3)c21 [Example 4, 1-(10-((3-chloro-4-(pyridin-2-ylmethoxy)phenyl)amino)-2,3-dihydro-4H-[1,4]oxazino[2,3-f]quinazolin-4-yl)prop-2-en-1-one] |
| ≤ 50 nM | ≤ 50 nM |  | O=C(/C=C/CN1CCC(F)CC1)N1CCOc2c1ccc1ncnc(Nc3ccc(OCc4ccccn4)c(Cl)c3)c21 [Example 118, (E)-1-(10-((3-chloro-4-(pyridin-2-ylmethoxy)phenyl)amino)-2,3-dihydro-4H-[1,4]oxazino[2,3-f]quinazolin-4-yl)-4-(4-fluoropiperidin-1-yl)but-2-en-1-one] |
|  | ≤ 50 nM | ≤ 50 nM | C=CC(=O)N1CCOc2c1ccc1ncnc(Oc3ccc(Oc4ccc(F)cc4)cc3)c21 [Example 37, 1-(10-(4-(4-fluorophenoxy)phenoxy)-2,3-dihydro-4H-[1,4]oxazino[2,3-f]quinazolin-4-yl)prop-2-en-1-one] |
|  | ≤ 50 nM | ≤ 50 nM | C=CC(=O)N1CCOc2c1ccc1ncnc(Nc3ccc(OCc4cccc(F)c4)c(Cl)c3)c21 [Example 3] |
|  | ≤ 50 nM | ≤ 50 nM | C=CC(=O)N1CCOc2c1ccc1ncnc(Oc3ccc(OCc4cccc(F)c4)c(Cl)c3)c21 [Example 35, 1-(10-(3-chloro-4-((3-fluorobenzyl)oxy)phenoxy)-2,3-dihydro-4H-[1,4]oxazino[2,3-f]quinazolin-4-yl)prop-2-en-1-one] |
|  | ≤ 50 nM | ≤ 50 nM | CN(C)C/C=C/C(=O)N1CCOc2c1ccc1ncnc(Nc3ccc(OCc4cccc(F)c4)c(C(F)(F)F)c3)c21 [Example 67] |
| ≤ 50 nM | ≤ 50 nM |  | CN1CCC[C@@H]1/C=C/C(=O)N1CCOc2c1ccc1ncnc(Nc3ccc(OCc4ccccn4)c(Cl)c3)c21 [Example 114] |
